Some results are limits rather than exact numbers.

This test in a line: MIC of the examples against various organisms. It is filed as cell-based. The following applies: against at least two of the above organisms (12-strain panel). Here is the method:
The MIC (μg/ml) of the examples against various organisms was determined: A. baumannii ATCC19606, E. cloacae ATCC23355, E. coli ATCC25922, K. pneumoniae ATCC27736, P. mirabilis ATCC29906, P. aeruginosa ATCC27853, S. maltophilia ATCC13637, S. aureus ATCC43300, S. epidermidis ATCC14990, S. haemolyticus ATCC29970, E. faecalis ATCC29212 and E. faecium ATC19434.
`COc1ccc2nccc(C(O)CN3CCCC(CNCc4ccc5c(c4)OCCO5)C3)c2n1` (single isomer, unassigned) [Example 3, 2-(3-{[(2,3-Dihydro-benzo[1,4]dioxin-6-ylmethyl)-amino]-methyl}-piperidin-1-yl)-1-(6-methoxy-[1,5]-naphthyridin-4-yl)-ethanol]: the MIC was at most 2 µg/mL.
Regarding `COc1ccc2nccc(C(O)CN3CCCC(CNCc4ccc5c(c4)NC(=O)CS5)C3)c2n1` (single isomer, unassigned) [Example 6, 6-[({1-[2-Hydroxy-2-(6-methoxy-[1,5]-naphthyridin-4-yl)-ethyl]-piperidin-3-ylmethyl}-amino)-methyl]-4H-benzo[1,4]thiazin-3-one], the minimal inhibitory concentration (MIC) was at most 2 µg/mL.
The result for `COc1ccc2nccc(C(O)CN3CCCC(CNC/C=C/c4ccccc4)C3)c2n1` (single isomer, unassigned) [Example 7, 1-(6-Methoxy-[1,5]-naphthyridin-4-yl)-2-{3-[((E)-3-phenyl-allylamino)-methyl]-piperidin-1-yl}-ethanol] reads at most 2 µg/mL.
Turning to `COc1ccc2nccc(C(O)CN3C4CCC3CC(NCc3ccc5c(c3)NC(=O)CO5)C4)c2n1` (single isomer, unassigned) [Example 8, 6-({8-[2-Hydroxy-2-(6-methoxy-[1,5]-naphthyridin-4-yl)-ethyl]-8-aza-bicyclo[3.2.1]oct-3-ylamino}-methyl)-4H-benzo[1,4]oxazin-3-one], the MIC is at most 2 µg/mL.
To `COc1ccc2nccc(C(O)CN3C4CCC3CC(NCc3ccc5c(c3)OCO5)C4)c2n1` (single isomer, unassigned) [Example 9, 2-{3-[(Benzo[1,3]dioxol-5-ylmethyl)-amino]-8-aza-bicyclo[3.2.1]oct-8-yl}-1-(6-methoxy-[1,5]-naphthyridin-4-yl)-ethanol] belongs at most 2 µg/mL.
As to `COc1ccc2nccc(C(O)CN3C4CCC3CC(NCc3ccc5c(c3)OCCO5)C4)c2n1` (single isomer, unassigned) [Example 10, 2-{3-[(2,3-Dihydro-benzo[1,4]dioxin-6-ylmethyl)-amino]-8-aza-bicyclo[3.2.1]oct-8-yl}-1-(6-methoxy-[1,5]-naphthyridin-4-yl)-ethanol], the MIC was at most 2 µg/mL.
To `COc1ccc2nccc(C(O)CN3C4CCC3CC(NCc3ccc5nsnc5c3)C4)c2n1` (single isomer, unassigned) [Example 11, 2-{3-[(Benzo[1,2,5]thiadiazol-5-ylmethyl)-amino]-8-aza-bicyclo[3.2.1]oct-8-yl}-1-(6-methoxy-[1,5]-naphthyridin-4-yl)-ethanol] belongs at most 2 µg/mL; to `COc1ccc2nccc(C(O)CN3C4CCC3CC(NCc3ccc5c(c3)NC(=O)CS5)C4)c2n1` (single isomer, unassigned) [Example 13, 6-({8-[2-Hydroxy-2-(6-methoxy-[1,5]-naphthyridin-4-yl)-ethyl]-8-aza-bicyclo[3.2.1]oct-3-ylamino}-methyl)-4H-benzo[1,4]thiazin-3-one], at most 2 µg/mL; to `COc1ccc2nccc(C(O)CN3C4CCC3CC(NC/C=C/c3ccccc3)C4)c2n1` (single isomer, unassigned) [Example 14, 1-(6-Methoxy-[1,5]-naphthyridin-4-yl)-2-[3-((E)-3-phenyl-allylamino)-8-aza-bicyclo[3.2.1]oct-8-yl]-ethanol], at most 2 µg/mL.
With `COc1cnc2cccc(C(O)CN3C4CCC3CC(NC/C=C/c3ccccn3)C4)c2c1` (single isomer, unassigned) [Example 35, 1-(3-Methoxy-quinolin-5-yl)-2-[3-((E)-3-pyridin-2-yl-allylamino)-8-aza-bicyclo[3.2.1]oct-8-yl]-ethanol], the MIC was at most 2 µg/mL.
To `COc1cnc2cccc(C(O)CN3C4CCC3CC(NCc3ccc5c(c3)NC(=O)CS5)C4)c2c1` (single isomer, unassigned) [Example 36, 6-({8-[2-Hydroxy-2-(3-methoxy-quinolin-5-yl)-ethyl]-8-aza-bicyclo[3.2.1]oct-3-ylamino}-methyl)-4H-benzo[1,4]thiazin-3-one] belongs at most 2 µg/mL; to `COc1cnc2cccc(C(O)CN3C4CCC3CC(NCc3ccc5c(n3)NC(=O)CS5)C4)c2c1` (single isomer, unassigned) [Example 37, 6-({8-[2-Hydroxy-2-(3-methoxy-quinolin-5-yl)-ethyl]-8-aza-bicyclo[3.2.1]oct-3-ylamino}-methyl)-4H-pyrido[3,2-b][1,4]thiazin-3-one], at most 2 µg/mL; to `COc1cnc2cccc(C(O)CN3CCCC(CNCc4ccc5nsnc5c4)C3)c2c1` (single isomer, unassigned) [Example 41, 2-(3-{[(Benzo[1,2,5]thiadiazol-5-ylmethyl)-amino]-methyl}-piperidin-1-yl)-1-(3-methoxy-quinolin-5-yl)-ethanol], at most 2 µg/mL.
Take `COc1cnc2cccc(C(O)CN3CCCC(CNCc4ccc5c(n4)NC(=O)CS5)C3)c2c1` (single isomer, unassigned) [Example 42, 6-[({1-[2-Hydroxy-2-(3-methoxy-quinolin-5-yl)-ethyl]-piperidin-3-ylmethyl}-amino)-methyl]-4H-pyrido[3,2-b][1,4]thiazin-3-one]: the MIC was at most 2 µg/mL.
To `COc1cnc2cccc(C(O)CN3CCCC(CNCc4cc5c(cn4)OCCO5)C3)c2c1` (single isomer, unassigned) [Example 43, 2-(3-{[(2,3-Dihydro-[1,4]dioxino[2,3-c]pyridin-7-ylmethyl)-amino]-methyl}-piperidin-1-yl)-1-(3-methoxy-quinolin-5-yl)-ethanol] belongs at most 2 µg/mL.
To `COc1cnc2cccc(C(O)CN3CCCC(CNCc4ccc5c(c4)OCO5)C3)c2c1` (single isomer, unassigned) [Example 44, 2-(3-{[(Benzo[1,3]dioxol-5-ylmethyl)-amino]-methyl}-piperidin-1-yl)-1-(3-methoxy-quinolin-5-yl)-ethanol] belongs at most 2 µg/mL; to `COc1cnc2cccc(C(O)CN3CCCC(CNCc4ccc5c(c4)NC(=O)CO5)C3)c2c1` (single isomer, unassigned) [Example 45, 6-[({1-[2-Hydroxy-2-(3-methoxy-quinolin-5-yl)-ethyl]-piperidin-3-ylmethyl}-amino)-methyl]-4H-benzo[1,4]oxazin-3-one], at most 2 µg/mL.
Turning to `COc1ccc2ncc(Cl)c(C(O)CN3C4CCC3CC(NCc3ccc5c(c3)NC(=O)CS5)C4)c2c1` (single isomer, unassigned) [Example 57, 6-({8-[2-(3-Chloro-6-methoxy-quinolin-4-yl)-2-hydroxy-ethyl]-8-aza-bicyclo[3.2.1]oct-3-ylamino}-methyl)-4H-benzo[1,4]thiazin-3-one], the MIC was at most 2 µg/mL.
The result for `COc1ccc2ncc(Cl)c(C(O)CN3C4CCC3CC(NCc3ccc5nsnc5c3)C4)c2c1` (single isomer, unassigned) [Example 58, 2-{3-[(Benzo[1,2,5]thiadiazol-5-ylmethyl)-amino]-8-aza-bicyclo[3.2.1]oct-8-yl}-1-(3-chloro-6-methoxy-quinolin-4-yl)-ethanol] reads at most 2 µg/mL.
To `COc1ccc2ncc(Cl)c(C(O)CN3C4CCC3CC(NCc3ccc5nonc5c3)C4)c2c1` (single isomer, unassigned) [Example 59, 2-{3-[(Benzo[1,2,5]oxadiazol-5-ylmethyl)-amino]-8-aza-bicyclo[3.2.1]oct-8-yl}-1-(3-chloro-6-methoxy-quinolin-4-yl)-ethanol] belongs at most 2 µg/mL; to `COc1ccc2ncc(Cl)c(C(O)CN3C4CCC3CC(NCc3cc5c(cc3F)SCC(=O)N5)C4)c2c1` (single isomer, unassigned) [Example 60, 6-({8-[2-(3-Chloro-6-methoxy-quinolin-4-yl)-2-hydroxy-ethyl]-8-aza-bicyclo[3.2.1]oct-3-ylamino}-methyl)-7-fluoro-4H-benzo[1,4]thiazin-3-one], at most 2 µg/mL; to `COc1ccc2ncc(Cl)c(C(O)CN3C4CCC3CC(NCc3ccc5c(c3)OCO5)C4)c2c1` (single isomer, unassigned) [Example 61, 2-{3-[(Benzo[1,3]dioxol-5-ylmethyl)-amino]-8-aza-bicyclo[3.2.1]oct-8-yl}-1-(3-chloro-6-methoxy-quinolin-4-yl)-ethanol], at most 2 µg/mL.
To `COc1ccc2ncc(Cl)c(C(O)CN3C4CCC3CC(NCc3ccc5c(c3)OCCO5)C4)c2c1` (single isomer, unassigned) [Example 62, 1-(3-Chloro-6-methoxy-quinolin-4-yl)-2-{3-[(2,3-dihydro-benzo[1,4]dioxin-6-ylmethyl)-amino]-8-aza-bicyclo[3.2.1]oct-8-yl}-ethanol] belongs at most 2 µg/mL.
Turning to `COc1ccc2ncc(Cl)c(C(O)CN3C4CCC3CC(NC/C=C/c3ccccc3)C4)c2c1` (single isomer, unassigned) [Example 63, 1-(3-Chloro-6-methoxy-quinolin-4-yl)-2-[3-((E)-3-phenyl-allylamino)-8-aza-bicyclo[3.2.1]oct-8-yl]-ethanol], the MIC was at most 2 µg/mL.
As to `COc1ccc2ncc(Cl)c(C(O)CN3CCCC(CNCc4ccc5c(c4)OCO5)C3)c2c1` (single isomer, unassigned) [Example 65, 2-(3-{[(Benzo[1,3]dioxol-5-ylmethyl)-amino]-methyl}-piperidin-1-yl)-1-(3-chloro-6-methoxy-quinolin-4-yl)-ethanol], the MIC was at most 2 µg/mL.
To `COc1ccc2ncc(Cl)c(C(O)CN3CCCC(CNCc4ccc5c(c4)OCCO5)C3)c2c1` (single isomer, unassigned) [Example 66, 1-(3-Chloro-6-methoxy-quinolin-4-yl)-2-(3-{[(2,3-dihydro-benzo[1,4]dioxin-6-ylmethyl)-amino]-methyl}-piperidin-1-yl)-ethanol] belongs at most 2 µg/mL; to `COc1ccc2ncc(Cl)c(C(O)CN3CCCC(CNCc4cc5c(cc4F)SCC(=O)N5)C3)c2c1` (single isomer, unassigned) [Example 67, 6-[({1-[2-(3-Chloro-6-methoxy-quinolin-4-yl)-2-hydroxy-ethyl]-piperidin-3-ylmethyl}-amino)-methyl]-7-fluoro-4H-benzo[1,4]thiazin-3-one], at most 2 µg/mL.

(Values after patent US20070244103A1, “Novel Compounds Having an Anti-Bacterial Activity” (Morphochem Aktiengesellschaft Fur Kombinatorische Chemie, priority 2004, published 2007).)
